Measurements taken from patent US3963756A, “Derivatives of 6-methyl-2H-pyran-2,4(3H)-dione” (Zaidan Hojin Biseibutsu Kagaku Kenkyu Kai, priority 1972, dated 1976).
Each block holds one compound with its values, some of them ahead of it.

Assays:
[1] = tested on: mice; assay: Toxicity in mice (LD50; 30-day daily dosing); format: in vivo; settings: 160, 40 and 10 mg/kg orally or intraperitoneally daily to mice for 30 days
[2] = tested on: genetically hypertensive rats; assay: Blood pressure in genetically hypertensive rats; format: in vivo; settings: genetically hypertensive rats (Okamoto)
Description: (§1) Hydroxylation of tyrosine is the rate-limiting step of norepinephrine biosynthesis. Therefore, inhibition of tyrosine hydroxylase results in inhibition of norepinephrine synthesis in vivo which results in lowering the blood pressure. […] Okamoto, of the Medical School, University of Kyoto, Japan, and described in "Journal of Antibiotics" 23: 514 (1970).

[3] = tested on: rat; assay: Blood pressure in rats; format: in vivo; settings: for systolic blood pressure lowered to: 6.25 mg/kg i.p.
Protocol: as §1
When 6.25 mg/kg was intraperitoneally injected to a rat of 185 mm. systolic blood pressure and another rat of 188 mm., the blood pressure was then lowered to 115-145 mm. and 138-166 mm. respectively during 1-22 hours after the injection. When […]. was intraperitoneally injected to a rat of 190 mm. systolic blood pressure, the pressure was reduced to 146-162 mm. during 1-22 hours after the injection. […] It caused 20-30% reduction of blood pressure which continued for about 5 days after the last oral administration.

[4] = tested on: mice and rats; assay: Sleeping / sedative effect in mice and rats; format: in vivo; settings: injection of 200 mg/kg to mice and rats
Description: as §1

[5] = molecular target: T1, Tyrosine Hydroxylase (Bos taurus, UniProt P17289); assay: Inhibition of tyrosine hydroxylase (TH); format: biochemical
T1 sequence (P17289 1-491): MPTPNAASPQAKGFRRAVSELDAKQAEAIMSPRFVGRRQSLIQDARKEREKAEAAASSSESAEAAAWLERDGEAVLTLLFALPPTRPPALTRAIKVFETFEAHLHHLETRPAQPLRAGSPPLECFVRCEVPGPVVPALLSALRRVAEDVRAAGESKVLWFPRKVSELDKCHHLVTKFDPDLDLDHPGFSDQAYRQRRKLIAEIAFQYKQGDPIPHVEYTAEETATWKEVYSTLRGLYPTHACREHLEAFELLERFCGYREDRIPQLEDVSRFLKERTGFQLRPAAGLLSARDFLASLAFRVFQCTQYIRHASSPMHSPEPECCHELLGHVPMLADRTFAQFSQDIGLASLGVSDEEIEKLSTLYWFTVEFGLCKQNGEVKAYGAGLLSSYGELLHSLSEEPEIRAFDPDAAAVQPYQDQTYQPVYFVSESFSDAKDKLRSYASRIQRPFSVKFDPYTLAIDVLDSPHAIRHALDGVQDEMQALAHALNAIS
Description: (§2) The new compounds of the present invention have been examined for their biological activities, and their inhibition to tyrosine hydroxylase and dopamine β-hydroxylase are summarized below in Table 2. The details of the test methods used and the close relationship and reliable correlation of biological activities between in vitro and in vivo test results are well documented in the literature, e.g. J. Antibiot. 23: 514 (1970); Biochem. Pharmacol., 19: 35 (1970); and J. Am. Chem. Soc. 93: 1285 (1971). […] The effects of this compound on tyrosine hydroxylase and dopamine β-hydroxylase were also tested by the methods described in the Journal of Antibiotics 23:514 (1970) and Biochem. Pharmacol. 19:35 (1970), respectively.
(§3) The chemical structure of the products [I], solvent for hydrogenation and solvent for recrystallization are summarised in Table 1, and the yields of the products [I] are also shown in Table 1 together with their melting points, elemental analysis data, Inhibition (%) of tyrosine hydroxylase (TH) and Inhibition (%) to dopamine β-hydroxylase (DH) at different concentrations of the products [I] of 100 mcg/cc and 200 mcg/cc.

[6] = tested on: bacteria and fungi; settings: Chemical Abstracts 50, 980e; cited from earlier work
[7] = Lowering of blood pressure (general statements); set-up: species or system mammals; settings: in vivo
[8] = molecular target: T2, Dopamine β-Hydroxylase (Bos taurus, UniProt P15101); assay: Inhibition of dopamine β-hydroxylase (DH); format: biochemical
T2 sequence (P15101 1-610): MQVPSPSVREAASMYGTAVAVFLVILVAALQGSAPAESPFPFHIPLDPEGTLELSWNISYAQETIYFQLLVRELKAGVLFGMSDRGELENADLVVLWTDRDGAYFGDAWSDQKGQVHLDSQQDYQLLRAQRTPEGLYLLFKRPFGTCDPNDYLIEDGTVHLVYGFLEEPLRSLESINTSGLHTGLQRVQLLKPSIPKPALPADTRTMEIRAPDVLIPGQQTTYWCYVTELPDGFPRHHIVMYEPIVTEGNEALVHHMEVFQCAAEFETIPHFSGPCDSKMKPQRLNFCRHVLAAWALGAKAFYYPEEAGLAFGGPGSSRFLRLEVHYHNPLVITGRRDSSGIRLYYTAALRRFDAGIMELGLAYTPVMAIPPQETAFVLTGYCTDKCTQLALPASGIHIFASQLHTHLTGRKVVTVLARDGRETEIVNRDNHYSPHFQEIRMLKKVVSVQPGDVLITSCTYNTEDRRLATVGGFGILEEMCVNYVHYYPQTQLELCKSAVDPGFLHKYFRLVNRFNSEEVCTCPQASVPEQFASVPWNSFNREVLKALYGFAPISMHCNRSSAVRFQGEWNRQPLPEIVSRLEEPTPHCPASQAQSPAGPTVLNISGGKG
Description: as §2, §3

[9] = Toxicity in mice (LD50; 30-day daily dosing); format: in vivo; settings: mouse, in vivo, ip; mice, intraperitoneal injection
[10] = oral daily for three days, 3.1, 6.25, 12.5, 25 mg/kg

SMILES: COc1ccccc1CCC(=O)C1C(=O)C=C(C)OC1=O (stereo not drawn) [3-(2-methoxyhydrocinnamoyl)-6-methyl-2H-pyran-2,4(3H)-dione] [listing 1 of 2 here]
usual toxic signs [1]: none of the usual toxic signs appeared except a decrease in the blood pressure
hypotensive effect [2]: even more markedly
duration of blood pressure reduction after the last oral administration [3, 10]: about 5 days
reduction of blood pressure [3, 10]: 20-30%
reduction of blood pressure (in words) [3, 10]: marked reduction of blood pressure
systolic blood pressure lowered to ([3]; rat of 185 mm systolic, during 1-22 hours after injection): 115-145 mm
systolic blood pressure lowered to ([3]; rat of 188 mm systolic, during 1-22 hours after injection): 138-166 mm
systolic blood pressure reduced to ([3]; rat of 190 mm systolic, 12.5 mm/kg (so in the source) i.p., during 1-22 hours after injection): 146-162 mm
systolic and diastolic blood pressure ([3]; rats, daily injection or daily oral administration, 3.5 mg/kg): lowered both the systolic and the diastolic blood pressure
sleeping and sedative effect [4]: did not cause sleeping and a sedative effect was not recognized
inhibition % to tyrosine hydroxylase ([5]; 12.5 mcg/cc): 10%
inhibition % to tyrosine hydroxylase ([5]; 25 mcg/cc): 18%
inhibition % to tyrosine hydroxylase ([5]; 50 mcg/cc): 22%
inhibition % to tyrosine hydroxylase ([5]; 100 mcg/cc): 32%

inhibition at 100 µg/mL ([5]; 100 mcg/cc): 49.7%
inhibition at 200 µg/mL ([5]; 200 mcg/cc): 52.8%
inhibition to DH ([8]; 100 mcg/cc): 100%
SMILES: CC1=CC(=O)C(C(=O)CCc2ccccc2)C(=O)O1 (stereo not drawn) [3-hydrocinnamoyl-6-methyl-2H-pyran-2,4(3H)-dione, reference compound]
antibacterial and antifungal activity [6]: weak antibacterial and antifungal activity
blood pressure reducing (hypotensive) activity, in words [7]: active in reducing blood pressure

SMILES: COc1ccccc1CCC(=O)C1C(=O)C=C(C)OC1=O (stereo not drawn) [3-(2-methoxyhydrocinnamoyl)-6-methyl-2H-pyran-2,4(3H)-dione] [listing 2 of 2 here]
LD50 [9]: 1200 mg/kg
IC50 [8]: 1910 nM
